The values below come from US20100113540A1, “Azole and Thiazole Derivatives and Their Use” (ARGENTA DISCOVERY LIMITED, priority 2005, published 2010).

This assay concerns the target T1, M3 muscarinic receptor (Homo sapiens, UniProt P20309).
T1 construct: purchased
The experiment in a line: Muscarinic receptor radioligand binding assay ([3H]-NMS), M3. The settings on record: cell membranes expressing human M3 receptor. The procedure: The inhibitory effects of compounds of the present invention at the M3 muscarinic receptor and (in the case of Example 77) the β2 adrenergic receptor, were determined by the following binding assays:
Radioligand binding studies utilising [^3H]-N-methyl scopolamine ([^3H]-NMS) and commercially available cell membranes expressing the human muscarinic receptors (M2 and M3) were used to assess the affinity of muscarinic antagonists for M2 and M3 receptors. Membranes in TRIS buffer were incubated in 96-well plates with [^3H]-NMS and M3 antagonist at various concentrations for 3 hours. Membranes and bound radioligand were then harvested by filtration and allowed to dry overnight. Scintillation fluid was then added and the bound radioligand counted using a Can berra Packard Topcount scintillation counter

Where a name gives a salt, the structure may show the parent alone. Bounds are passed on as bounds.

T1 sequence (P20309 whole entry): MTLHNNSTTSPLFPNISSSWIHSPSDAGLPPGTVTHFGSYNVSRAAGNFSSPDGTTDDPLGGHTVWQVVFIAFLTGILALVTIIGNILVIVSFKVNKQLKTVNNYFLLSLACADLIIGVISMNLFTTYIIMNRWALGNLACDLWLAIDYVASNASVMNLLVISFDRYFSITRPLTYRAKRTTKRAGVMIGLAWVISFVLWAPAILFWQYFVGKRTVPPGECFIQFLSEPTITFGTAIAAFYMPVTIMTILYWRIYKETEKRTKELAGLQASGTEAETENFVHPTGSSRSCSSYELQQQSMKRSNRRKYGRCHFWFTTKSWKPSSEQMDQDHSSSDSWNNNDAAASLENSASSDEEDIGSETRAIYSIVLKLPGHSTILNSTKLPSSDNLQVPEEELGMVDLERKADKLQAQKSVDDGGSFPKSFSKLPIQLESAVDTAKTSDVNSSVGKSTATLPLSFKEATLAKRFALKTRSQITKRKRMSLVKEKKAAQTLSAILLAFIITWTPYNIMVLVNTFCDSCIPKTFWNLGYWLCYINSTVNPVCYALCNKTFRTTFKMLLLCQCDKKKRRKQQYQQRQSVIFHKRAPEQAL

Turning to `CN(C)Cc1cnc([C@@](O)(c2ccccc2)C2CCCCC2)o1` (single isomer, unassigned) [Example 5], the Ki is greater than 10 nM.
Under `CN(C)Cc1cnc([C@](O)(c2ccccc2)C2CCCCC2)o1` (single isomer, unassigned) [Example 6] stands less than 1 nM; under `CN(CCCOc1ccccc1)Cc1cnc([C@@](O)(c2ccccc2)C2CCCCC2)o1` (single isomer, unassigned) [Example 14], greater than 10 nM; under `CN(CCCOc1ccccc1)Cc1cnc([C@](O)(c2ccccc2)C2CCCCC2)o1` (single isomer, unassigned) [Example 15], 1 to 10 nM.
The result for `CN(Cc1ccccc1)Cc1cnc([C@](O)(c2ccccc2)C2CCCC2)o1` (single isomer, unassigned) [Example 28, {5-[(Benzyl-methyl-amino)-methyl]-oxazol-2-yl}-cyclopentyl-phenyl-methanol] reads greater than 10 nM; that for `CN(Cc1ccccc1)Cc1cnc([C@@](O)(c2ccccc2)C2CCCC2)o1` (single isomer, unassigned) [Example 29, {5-[(Benzyl-methyl-amino)-methyl]-oxazol-2-yl}-cyclopentyl-phenyl-methanol], greater than 10 nM.
Under `CN(C)CCc1cnc(C(O)(c2ccccc2)C2CCCCC2)o1` (single isomer, unassigned) [Example 66] stands 1 to 10 nM.
Compound `CN(C)CCc1cnc(C(O)(c2ccccc2)C2CCCCC2)o1` (single isomer, unassigned) [Example 67] yielded a Ki of less than 1 nM.
The result for `C[N+](C)(CCCOc1ccccc1)CCc1cnc(C(O)(c2ccccc2)C2CCCCC2)o1` (single isomer, unassigned) [Example 68, {2-[2-(Cyclohexyl-hydroxy-phenyl-methyl)-oxazol-5-yl]-ethyl}-dimethyl-(3-phenoxy-propyl)-ammonium bromide] reads 1 to 10 nM; that for `C[N+](C)(CCCOc1ccccc1)CCc1cnc(C(O)(c2ccccc2)C2CCCCC2)o1` (single isomer, unassigned) [Example 69, {2-[2-(Cyclohexyl-hydroxy-phenyl-methyl)-oxazol-5-yl]-ethyl}-dimethyl-(3-phenoxy-propyl)-ammonium bromide], less than 1 nM; that for `C[N+](C)(CCCOc1ccccc1)Cc1cnc([C@@](O)(c2ccccc2)C2CCCC2)o1` (stereo in doubt) [Example 36, [2-(Cyclopentyl-hydroxy-phenyl-methyl)-oxazol-5-ylmethyl]-dimethyl-(3-phenoxy-propyl)-ammonium bromide], less than 1 nM.
The result for `C[N+](C)(Cc1ccccc1)Cc1cnc([C@@](O)(c2ccccc2)C2CCCC2)o1` (stereo in doubt) [Example 60, Benzyl-[2-(cyclopentyl-hydroxy-phenyl-methyl)-oxazol-5-ylmethyl]-dimethyl-ammonium bromide] reads greater than 10 nM; that for `CN(C)Cc1cnc(C(O)(c2ccccc2)c2ccccc2)o1` [Example 1, (5-Dimethylaminomethyl-oxazol-2-yl)-diphenyv-methanol], 1 to 10 nM.
The result for `C[N+](C)(CCCOc1ccccc1)Cc1cnc(C(O)(c2ccccc2)c2ccccc2)o1` [Example 2, [2-(Hydroxy-diphenyl-methyl)-oxazol-5-ylmethyl]-dimethyl-(3-phenoxy-propyl)-ammonium formate] reads less than 1 nM.
As for `CN(C)Cc1cnc(C(O)(c2ccccc2)C2CCCCC2)o1` (stereo not drawn) [Example 4, Cyclohexyl-(5-dimethylaminomethyl-oxazol-2-yl)-phenyl-methanol], the Ki was less than 1 nM.
The result for `C[N+](C)(CCCOc1ccccc1)Cc1cnc([C@@](O)(c2ccccc2)C2CCCCC2)o1` [Example 7, [2-((S)-Cyclohexyl-hydroxy-phenyl-methyl)-oxazol-5-ylmethyl]-dimethyl-(3-phenoxy-propyl)-ammonium bromide] reads 1 to 10 nM.
With `C[N+](C)(CCCOc1ccccc1)Cc1cnc([C@](O)(c2ccccc2)C2CCCCC2)o1` [Example 8, [2-((R)-Cyclohexyl-hydroxy-phenyl-methyl)-oxazol-5-ylmethyl]-dimethyl-(3-phenoxy-propyl)-ammonium bromide], the Ki is less than 1 nM.
Under `CN(CCCOc1ccccc1)Cc1cnc(C(O)(c2ccccc2)C2CCCCC2)o1` (stereo not drawn) [Example 13, Cyclohexyl-(5-{[methyl-(3-phenoxy-propyl)-amino]-methyl}-oxazol-2-yl)-phenyl-methanol] stands 1 to 10 nM; under `OC(c1ccccc1)(c1ccccc1)c1ncc(CN2CCC(Oc3ccccc3)CC2)o1` [Example 26, [5-(4-Phenoxy-piperidin-1-ylmethyl)-oxazol-2-yl]-diphenyl-methanol], greater than 10 nM; under `CN(C)Cc1cnc(C(C)(c2ccccc2)c2ccccc2)o1` [Example 30, [2-(1,1-Diphenyl-ethyl)-oxazol-5-ylmethyl]-dimethyl-amine], greater than 10 nM.
For `C[N+](C)(CCc1ccccc1)Cc1cnc([C@@](O)(c2ccccc2)C2CCCCC2)o1` [Example 31, [2-((S)-Cyclohexyl-hydroxy-phenyl-methyl)-oxazol-5-ylmethyl]-dimethyl-phenethyl-ammonium bromide], the Ki is greater than 10 nM.
Under `C[N+](C)(CCc1ccccc1)Cc1cnc([C@](O)(c2ccccc2)C2CCCCC2)o1` [Example 32, [2-((R)-Cyclohexyl-hydroxy-phenyl-methyl)-oxazol-5-ylmethyl]-dimethyl-phenethyl-ammonium bromide] stands less than 1 nM; under `CC(C)=CCC[N+](C)(C)Cc1cnc([C@](O)(c2ccccc2)C2CCCCC2)o1` [Example 33, [2-((R)-Cyclohexyl-hydroxy-phenyl-methyl)-oxazol-5-ylmethyl]-dimethyl-(4-methyl-pent-3-enyl)-ammonium bromide], less than 1 nM; under `C[N+](C)(CCc1ccc2c(c1)CCO2)Cc1cnc([C@](O)(c2ccccc2)C2CCCCC2)o1` [Example 34, [2-((R)-Cyclohexyl-hydroxy-phenyl-methyl)-oxazol-5-ylmethyl]-[2-(2,3-dihydro-benzofuraan-5-yl)-ethyl]-dimethyl-ammonium bromide], less than 1 nM.
Under `Cc1cccc(C[N+](C)(C)Cc2cnc([C@](O)(c3ccccc3)C3CCCCC3)o2)n1` [Example 35, [2-((R)-cyclohexyl-hydroxy-phenyl-methyl)-oxazol-5-ylmethyl]-dimethyl-(6-methyl-pyridin-2-ylmethyl)-ammonium formate] stands 1 to 10 nM.
Under `C[N+](C)(CCCOc1ccccc1)Cc1cnc([C@](O)(c2ccccc2)C2CCCC2)o1` [Example 37, [2-(Cyclopentyl-hydroxy-phenyl-methyl)-oxazol-5-ylmethyl]-dimethyl-(3-phenoxy-propyl)-ammonium bromide] stands less than 1 nM.
Turning to `O[C@](c1ccccc1)(c1ncc(C[N+]2(CCCOc3ccccc3)CCCCC2)o1)C1CCCCC1` [Example 38, 1-[2-(Cyclohexyl-hydroxy-phenyl-methyl)-oxazol-5-ylmethyl]-1-(3-phenoxy-propyl)-piperidinium bromide], the Ki fell in the range of 1 to 10 nM.
Under `O[C@@](c1ccccc1)(c1ncc(C[N+]2(CCCOc3ccccc3)CCCCC2)o1)C1CCCCC1` [Example 39, 1-[2-(Cyclohexyl-hydroxy-phenyl-methyl)-oxazol-5-ylmethyl]-1-(3-phenoxy-propyl)-piperidinium bromide] stands greater than 10 nM; under `O[C@](c1ccccc1)(c1ncc(C[N+]2(CCCOc3ccccc3)CCCC2)o1)C1CCCCC1` [Example 40, 1-[2-(Cyclohexyl-hydroxy-phenyl-methyl)-oxazol-5-ylmethyl]-1-(3-phenoxy-propyl)-pyrrolidinium bromide], less than 1 nM.
Under `O[C@@](c1ccccc1)(c1ncc(C[N+]2(CCCOc3ccccc3)CCCC2)o1)C1CCCCC1` [Example 41, 1-[2-(Cyclohexyl-hydroxy-phenyl-methyl)-oxazol-5-ylmethyl]-1-(3-phenoxy-propyl)-pyrrolidinium bromide] stands greater than 10 nM; under `COCCCCCCCC[N+](C)(C)Cc1cnc([C@](O)(c2ccccc2)C2CCCCC2)o1` [Example 42, [2-((R)-Cyclohexyl-hydroxy-phenyl-methyl)-oxazol-5-ylmethyl]-(8-methoxy-octyl)-dimethyl-ammonium formate], 1 to 10 nM; under `C[N+](C)(CCCCOc1ccccc1)Cc1cnc([C@](O)(c2ccccc2)C2CCCCC2)o1` [Example 43, [2-((R)-Cyclohexyl-hydroxy-phenyl-methyl)-oxazol-5-ylmethyl]-dimethyl-(4-phenoxy-butyl)-ammonium bromide], less than 1 nM.
As to `C[N+](C)(CCOCc1ccccc1)Cc1cnc([C@](O)(c2ccccc2)C2CCCCC2)o1` [Example 44, (2-Benzyloxy-ethyl)-[2-((R)-cyclohexyl-hydroxy-phenyl-methyl)-oxazol-5-ylmethyl]-dimethyl-ammonium bromide], the Ki is less than 1 nM.
The result for `C[N+](C)(CCCCc1ccccc1)Cc1cnc([C@](O)(c2ccccc2)C2CCCCC2)o1` [Example 45, [2-((R)-Cyclohexyl-hydroxy-phenyl-methyl)-oxazol-5-ylmethyl]-dimethyl-(4-phenyl-butyl)-ammonium bromide] reads less than 1 nM; that for `C[N+](C)(CCCOc1ccc(F)cc1)Cc1cnc([C@](O)(c2ccccc2)C2CCCCC2)o1` [Example 46, [2-((R)-Cyclohexyl-hydroxy-phenyl-methyl)-oxazol-5-ylmethyl]-[3-(4-fluoro-phenoxy)-propyl]-dimethyl-ammonium bromide], less than 1 nM; that for `CN(CCCCCCCC[N+](C)(C)Cc1cnc([C@](O)(c2ccccc2)C2CCCCC2)o1)C(=O)OC(C)(C)C` [Example 47, [8-(tert-butoxycarbonyl-methyl-amino)-octyl]-[2-((R)-cyclohexyl-hydroxy-phenyl-methyl)-oxazol-5-ylmethyl]-dimethyl-ammonium methanesulfonate], 1 to 10 nM.

One may read the Ki as the equilibrium dissociation constant of an inhibitor or competing ligand from its target. High values mean lower affinity, low ones higher affinity.
